In patent US9994547B2, “Heteroarylamide inhibitors of TBK1” (Takeda Pharmaceutical Company Limited, priority 2014, dated 2018):

Molecular target: Full length human TBK1 (Homo sapiens (Human), UniProt Q9UHD2)
Assay: Inhibition of TBK1 Enzyme (Example A)
Type: biochemical
Settings: -log(IC50), IC50 molar; 3 nM TBK1, 25 μM ATP, 60 min RT
Protocol: Full length human TBK1 with an N-terminal His-tag was cloned into the pFastBacl vector and was transfected into Sf9 cells. 72 hours later the virus was harvested and amplified through two additional rounds of infections. Then 400 mL of the resulting virus stock was used to infect 10 L of Sf9 cells at a density of 2×10^6 cells/mL. Cell pellets were harvested 48 hours post infection and were lysed by freeze-thaw, homogenization and sonication in binding buffer (25 mM Tris pH7.6, 1 M NaCl, 10 mM imidazole, 0.5 mM TCEP) plus 0.1% Triton X-100 and complete protease inhibitor cocktail. The lysate was spun and the supernatant was purified with a HisTrap FF crude and a Superdex 200 pg column.
TBK1 inhibition is determined using a 384 well plate format in buffer containing 20 mM Hepes, pH 7.4, 10 mM MgCl2, 1 mM EDTA, 0.01% Brij-L23, 1 mM DTT. Each test compound is prepared in DMSO using 2.5-fold serial dilutions for 11 data points, which are added to the buffer so that each dilution contains 1% DMSO. To each well is added 2 μL of 1 μM 5FAM-DRHDSGLDSMKDE-NH2 (in buffer), 2 μL of diluted test compound (1% DMSO in buffer), and 5 μL of 3 nM TBK1 and 25 μM ATP (in buffer). The reaction mixture is incubated at RT for 60 min, and quenched by adding 20 mM Hepes, pH 7.4, 10 mM MgCl2, 1 mM EDTA, 0.01% Brij-L23, 1 mM DTT+25 mM EDTA. To quantify the fluorescent-labeled substrate and product following reaction, the test plate is loaded on a Caliper LC-3000, which measures percent of conversion by microfluidic-based separation. Corresponding IC50 values are calculated by non-linear curve fitting of the compound concentrations and percent of inhibition to the standard IC50 equation and reported as pIC50, i.e., −log(IC50), where IC50 is the molar concentration.

Full length human TBK1, sequence (Q9UHD2 whole entry): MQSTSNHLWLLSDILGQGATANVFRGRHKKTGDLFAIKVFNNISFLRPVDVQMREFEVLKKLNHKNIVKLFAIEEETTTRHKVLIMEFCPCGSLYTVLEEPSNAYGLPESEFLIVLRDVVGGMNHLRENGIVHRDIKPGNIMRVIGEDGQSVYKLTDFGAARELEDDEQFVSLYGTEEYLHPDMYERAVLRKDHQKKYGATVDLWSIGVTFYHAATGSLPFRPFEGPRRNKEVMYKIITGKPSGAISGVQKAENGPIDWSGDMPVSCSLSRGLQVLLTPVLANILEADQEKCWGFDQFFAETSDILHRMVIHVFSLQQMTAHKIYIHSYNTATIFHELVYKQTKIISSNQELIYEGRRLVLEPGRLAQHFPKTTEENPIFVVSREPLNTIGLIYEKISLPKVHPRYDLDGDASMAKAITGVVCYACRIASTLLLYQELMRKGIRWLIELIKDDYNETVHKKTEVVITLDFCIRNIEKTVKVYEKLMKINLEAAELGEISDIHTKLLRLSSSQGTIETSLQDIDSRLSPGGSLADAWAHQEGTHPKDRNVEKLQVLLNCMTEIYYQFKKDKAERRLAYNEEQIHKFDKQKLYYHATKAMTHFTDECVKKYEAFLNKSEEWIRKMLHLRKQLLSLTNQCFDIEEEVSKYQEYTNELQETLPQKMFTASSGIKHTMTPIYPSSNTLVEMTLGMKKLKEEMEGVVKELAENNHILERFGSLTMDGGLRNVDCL

SMILES	TBK1 Inhibition (pIC50)
CN(CC(F)F)C(=O)[C@H](CO)Nc1cc(-c2cnc(NC(=O)C3CC3)cn2)cnc1C#N [Example 58, (S)-N-(5-(6-cyano-5-((1-((2,2-difluoroethyl)(methyl)amino)-3-hydroxy-1-oxopropan-2-yl)amino)pyridin-3-yl)pyrazin-2-yl)cyclopropanecarboxamide]	7.3
CC(C#N)NC(=O)CNc1cc(-c2cnc(NC(=O)C3CC3)cn2)cnc1C#N (stereo not shown) [Example 59, N-(5-(6-cyano-5-((2-((1-cyanoethyl)amino)-2-oxoethyl)amino)pyridin-3-yl)pyrazin-2-yl)cyclopropanecarboxamide]	6.7
C[C@H](Nc1cc(-c2cnc(NC(=O)C3CC3)cn2)cnc1C#N)C(=O)N1CCO[C@@H]1C(F)(F)F [Example 60, N-(5-(6-cyano-5-((S)-1-oxo-1-((R)-2-(trifluoromethyl)oxazolidin-3-yl)propan-2-ylamino)pyridin-3-yl)pyrazin-2-yl)cyclopropanecarboxamide]	7.4
C[C@H](Nc1cc(-c2cnc(NC(=O)C3CC3)cn2)cnc1C#N)C(=O)N1CCO[C@H]1C(F)(F)F [Example 61, N-(5-(6-cyano-5-((S)-1-oxo-1-((S)-2-(trifluoromethyl)oxazolidin-3-yl)propan-2-ylamino)pyridin-3-yl)pyrazin-2-yl)cyclopropanecarboxamide]	6.0
CC(C#N)NC(=O)[C@H](C)Nc1cc(-c2cnc(NC(=O)C3CC3)cn2)cnc1C#N (stereo partly drawn) [Example 62, N-(5-(6-cyano-5-(((2S)-1-((1-cyanoethyl)amino)-1-oxopropan-2-yl)amino)pyridin-3-yl)pyrazin-2-yl)cyclopropanecarboxamide]	6.6
N#Cc1ncc(-c2cnc(NC(=O)C3CC3)cn2)cc1NCC(=O)N1CCOCC1C#N (stereo not shown) [Example 63, N-(5-(6-cyano-5-((2-(3-cyanomorpholino)-2-oxoethyl)amino)pyridin-3-yl)pyrazin-2-yl)cyclopropanecarboxamide]	7.2
N#Cc1ncc(-c2cnc(NC(=O)C3CC3)cn2)cc1NCC(=O)N1CCOC1C(F)(F)F (stereo not shown) [Example 64, N-(5-(6-cyano-5-((2-oxo-2-(2-(trifluoromethyl)oxazolidin-3-yl)ethyl)amino)pyridin-3-yl)pyrazin-2-yl)cyclopropanecarboxamide]	7.5
CN(CCC#N)C(=O)CNc1cc(-c2cnc(NC(=O)C3CC3)cn2)cnc1C#N [Example 65, N-(5-(6-cyano-5-((2-((2-cyanoethyl)(methyl)amino)-2-oxoethyl)amino)pyridin-3-yl)pyrazin-2-yl)cyclopropanecarboxamide]	6.9
CN(CCS(C)(=O)=O)C(=O)CNc1cc(-c2cnc(NC(=O)C3CC3)cn2)cnc1C#N [Example 66, N-(5-(6-cyano-5-((2-(methyl(2-(methylsulfonyl)ethyl)amino)-2-oxoethyl)amino)pyridin-3-yl)pyrazin-2-yl)cyclopropanecarboxamide]	6.6
C[C@H](Nc1cc(-c2cnc(NC(=O)C3CC3)cn2)cnc1C#N)C(=O)N(C)CCN(C)C [Example 67, (S)-N-(5-(6-cyano-5-((1-((2-(dimethylamino)ethyl)(methyl)amino)-1-oxopropan-2-yl)amino)pyridin-3-yl)pyrazin-2-yl)cyclopropanecarboxamide]	6.3
CN(C)C(=O)C(CC(F)F)Nc1cc(-c2cnc(NC(=O)C3CC3)cn2)cnc1C#N (stereo not shown) [Example 68, N-(5-(6-cyano-5-((1-(dimethylamino)-4,4-difluoro-1-oxobutan-2-yl)amino)pyridin-3-yl)pyrazin-2-yl)cyclopropanecarboxamide]	7.4
CC(C#N)N(C)C(=O)[C@H](C)Nc1cc(-c2cnc(NC(=O)C3CC3)cn2)cnc1C#N (stereo partly drawn) [Example 69, N-(5-(6-cyano-5-(((2S)-1-((1-cyanoethyl)(methyl)amino)-1-oxopropan-2-yl)amino)pyridin-3-yl)pyrazin-2-yl)cyclopropanecarboxamide]	7.7
CC[C@H](Nc1cc(-c2cnc(NC(=O)C3CC3)cn2)cnc1C#N)C(=O)N(C)CCO [Example 70, (S)-N-(5-(6-cyano-5-((1-((2-hydroxyethyl)(methyl)amino)-1-oxobutan-2-yl)amino)pyridin-3-yl)pyrazin-2-yl)cyclopropanecarboxamide]	7.1
CN(C(=O)CNc1cc(-c2cnc(NC(=O)C3CC3)cn2)cnc1C#N)C1CCOC1 (stereo not shown) [Example 71, N-(5-(6-cyano-5-((2-(methyl(tetrahydrofuran-3-yl)amino)-2-oxoethyl)amino)pyridin-3-yl)pyrazin-2-yl)cyclopropanecarboxamide]	6.6
N#Cc1ncc(-c2cnc(NC(=O)C3CC3)cn2)cc1NCC(=O)N(CCO)CC(F)F [Example 72, N-(5-(6-cyano-5-((2-((2,2-difluoroethyl)(2-hydroxyethyl)amino)-2-oxoethyl)amino)pyridin-3-yl)pyrazin-2-yl)cyclopropanecarboxamide]	7.8
C[C@H](Nc1cc(-c2cnc(NC(=O)C3CC3)cn2)cnc1C#N)C(=O)N(C)CC1CC1 [Example 73, (S)-N-(5-(6-cyano-5-((1-((cyclopropylmethyl)(methyl)amino)-1-oxopropan-2-yl)amino)pyridin-3-yl)pyrazin-2-yl)cyclopropanecarboxamide]	7.0
C[C@H](Nc1cc(-c2cnc(NC(=O)C3CC3)cn2)cnc1C#N)C(=O)N(C)c1cccnc1 [Example 74, (S)-N-(5-(6-cyano-5-((1-(methyl(pyridin-3-yl)amino)-1-oxopropan-2-yl)amino)pyridin-3-yl)pyrazin-2-yl)cyclopropanecarboxamide]	5.5
N#Cc1ncc(-c2cnc(NC(=O)C3CC3)cn2)cc1NCC(=O)N1CCOC[C@@H]1CF [Example 75, (R)-N-(5-(6-cyano-5-((2-(3-(fluoromethyl)morpholino)-2-oxoethyl)amino)pyridin-3-yl)pyrazin-2-yl)cyclopropanecarboxamide]	6.9
CN(Cc1cnccn1)C(=O)CNc1cc(-c2cnc(NC(=O)C3CC3)cn2)cnc1C#N [Example 76, N-(5-(6-cyano-5-((2-(methyl(pyrazin-2-ylmethyl)amino)-2-oxoethyl)amino)pyridin-3-yl)pyrazin-2-yl)cyclopropanecarboxamide]	5.3
COCCN(CC(F)(F)F)C(=O)CNc1cc(-c2cnc(NC(=O)C3CC3)cn2)cnc1C#N [Example 77, N-(5-(6-cyano-5-((2-((2-methoxyethyl)(2,2,2-trifluoroethyl)amino)-2-oxoethyl)amino)pyridin-3-yl)pyrazin-2-yl)cyclopropanecarboxamide]	7.2
CN(C)C(=O)[C@@H](CC(F)F)Nc1cc(-c2cnc(NC(=O)C3CC3)cn2)cnc1C#N [Example 78, (R)-N-(5-(6-cyano-5-((1-(dimethylamino)-4,4-difluoro-1-oxobutan-2-yl)amino)pyridin-3-yl)pyrazin-2-yl)cyclopropanecarboxamide]	6.6
C[C@H](Nc1cc(-c2cnc(NC(=O)C3CC3)cn2)cnc1C#N)C(=O)N(CCO)CC(F)F [Example 79, (S)-N-(5-(6-cyano-5-((1-((2,2-difluoroethyl)(2-hydroxyethyl)amino)-1-oxopropan-2-yl)amino)pyridin-3-yl)pyrazin-2-yl)cyclopropanecarboxamide]	6.8
